In brackets after ≈: the same amount, converted by molar mass.
What was measured:
[1] = biological target: T1, Dipeptidase 1 (Sus scrofa) (UniProt P22412); test: Susceptibility relative to imipenem was measured against Swine renal Dehydropeptidase-1
T1 sequence (whole entry): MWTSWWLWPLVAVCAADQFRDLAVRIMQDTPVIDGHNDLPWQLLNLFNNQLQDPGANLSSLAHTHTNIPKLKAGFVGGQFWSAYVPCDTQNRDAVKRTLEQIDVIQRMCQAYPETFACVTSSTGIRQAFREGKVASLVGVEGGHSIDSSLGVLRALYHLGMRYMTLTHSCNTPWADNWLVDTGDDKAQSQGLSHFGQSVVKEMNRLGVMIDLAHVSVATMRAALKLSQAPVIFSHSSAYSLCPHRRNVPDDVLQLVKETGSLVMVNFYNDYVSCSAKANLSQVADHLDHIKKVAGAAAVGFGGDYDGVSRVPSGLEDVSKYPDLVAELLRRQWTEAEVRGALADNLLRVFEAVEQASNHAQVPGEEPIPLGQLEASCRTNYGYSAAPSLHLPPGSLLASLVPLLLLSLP

[2] = tested on: Escherichia coli; test: Compound was tested for its minimal inhibitory concentration against Escherichia coli NIHJ JC-2; format: functional
[3] = tested on: Mus musculus; test: Percent urinary recovery was measured in mice after subcutaneous administration at dose 20 mg/kg.; format: functional, organism-based; design: dose 20 mg/kg; conditions: Urine
[4] = tested on: Pseudomonas aeruginosa; test: Compound was tested for its minimal inhibitory concentration against Pseudomonas aeruginosa 26; format: functional
[5] = tested on: Proteus vulgaris; test: Compound was tested for its minimal inhibitory concentration against Proteus vulgaris IAM 1025; format: functional
[6] = tested on: Staphylococcus aureus; test: Compound was tested for its minimal inhibitory concentration against Staphylococcus aureus 209 JC-1; format: functional
[7] = tested on: Staphylococcus aureus; test: Compound was tested for its minimal inhibitory concentration against Staphylococcus aureus 3004 (Methicillin resistant S. aureus); format: functional
[8] = species on record: Mus musculus; test: Susceptibility relative to meropenem was measured against mouse DHP-1.
[9] = species on record: Oryctolagus cuniculus; test: Susceptibility relative to meropenem was measured against rabbit DHP-1.
[10] = tested on: Cercopithecidae; test: Susceptibility relative to meropenem was measured against monkey DHP-1.
[11] = biological target: Dipeptidase 1 (Rattus norvegicus) (UniProt P31430); test: Susceptibility relative to meropenem was measured against rat Dehydropeptidase-1
Chain of Dipeptidase 1 (Rattus norvegicus) (P31430 whole entry, looked up): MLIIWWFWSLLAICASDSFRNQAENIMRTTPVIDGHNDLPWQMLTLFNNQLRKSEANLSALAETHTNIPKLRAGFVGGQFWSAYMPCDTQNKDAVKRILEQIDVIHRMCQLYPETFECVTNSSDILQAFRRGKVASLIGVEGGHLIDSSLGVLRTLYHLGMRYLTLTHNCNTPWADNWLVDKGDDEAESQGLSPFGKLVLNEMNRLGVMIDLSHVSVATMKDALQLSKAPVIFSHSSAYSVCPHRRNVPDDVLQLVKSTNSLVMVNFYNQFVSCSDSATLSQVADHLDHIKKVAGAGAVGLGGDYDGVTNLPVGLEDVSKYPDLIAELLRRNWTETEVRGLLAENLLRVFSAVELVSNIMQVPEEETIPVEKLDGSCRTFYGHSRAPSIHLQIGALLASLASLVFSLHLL

[12] = tested on: Dipeptidase 1 (Canis lupus familiaris); test: Susceptibility relative to meropenem was measured against dog Dehydropeptidase-1
[13] = biological target: Dipeptidase 1 (Homo sapiens) (UniProt P16444); test: Susceptibility relative to meropenem was measured against human Dehydropeptidase-1
Chain of Dipeptidase 1 (Homo sapiens) (P16444 whole entry, looked up): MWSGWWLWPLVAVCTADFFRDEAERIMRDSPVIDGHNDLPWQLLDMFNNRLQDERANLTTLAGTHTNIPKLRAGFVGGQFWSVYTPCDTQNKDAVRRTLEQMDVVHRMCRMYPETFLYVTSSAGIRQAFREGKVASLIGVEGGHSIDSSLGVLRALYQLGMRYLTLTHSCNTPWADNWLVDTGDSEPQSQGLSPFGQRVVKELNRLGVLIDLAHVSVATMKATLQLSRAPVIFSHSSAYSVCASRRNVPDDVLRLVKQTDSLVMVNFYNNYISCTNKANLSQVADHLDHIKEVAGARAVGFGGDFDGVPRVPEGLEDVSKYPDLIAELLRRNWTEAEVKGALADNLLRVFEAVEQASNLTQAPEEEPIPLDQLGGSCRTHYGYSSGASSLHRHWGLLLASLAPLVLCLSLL

| Structure (SMILES) | Susceptibility [1] | MIC [2] [µg/mL] | Recovery [3] [%] | MIC [4] [µg/mL] | MIC [5] [µg/mL] | MIC [6] [µg/mL] | MIC [7] [µg/mL] | Susceptibility [8] | Susceptibility [9] | Susceptibility [10] | Susceptibility [11] | Susceptibility [12] | Susceptibility [13] |
| --- | --- | --- | --- | --- | --- | --- | --- | --- | --- | --- | --- | --- | --- |
| COC/C(=C\[C@@H]1CCCN1)C1=C(C(=O)O)N2C(=O)[C@H]([C@@H](C)O)[C@H]2C1 | < 0.008 | 0.78 (≈ 2.32 µM) | 64.4 | 25 (≈ 74.3 µM) | 50 (≈ 149 µM) | 0.2 (≈ 0.595 µM) | > 100 |  |  |  |  |  |  |
| C/C(=C\[C@@H]1CCCN1)C1=C(C(=O)O)N2C(=O)[C@H]([C@@H](C)O)[C@H]2C1 | 0.036 | 0.39 (≈ 1.27 µM) | 67.8 | 3.13 (≈ 10.2 µM) | 1.56 (≈ 5.09 µM) | < 0.025 | 50 (≈ 163 µM) | 0.45 | 0.015 | 0.032 | 0.11 | 0.249 | 0.45 |
| C[C@@H](O)[C@H]1C(=O)N2C(C(=O)O)=C(SCCNC=N)C[C@H]12.O [IMIPENEM] | 1 | 0.78 | 28.9 | 0.78 | 3.13 | < 0.025 | 100 |  |  |  |  |  |  |
| C[C@@H](O)[C@H]1C(=O)N2C(C(=O)O)=C(/C=C/[C@@H]3CCCN3)C[C@H]12 | 0.22 | 1.56 (≈ 5.34 µM) | 20.2 | 3.13 (≈ 10.7 µM) | 1.56 (≈ 5.34 µM) | 0.1 (≈ 0.342 µM) | > 100 |  |  |  |  |  |  |
| C[C@@H](O)[C@H]1C(=O)N2C(C(=O)O)=C(/C=C/[C@@H]3CCCN3)[C@H](C)[C@H]12 | 0.043 | 0.78 (≈ 2.55 µM) | 60.7 | 3.13 (≈ 10.2 µM) | 6.25 (≈ 20.4 µM) | < 0.025 | 100 (≈ 326 µM) |  |  |  |  |  |  |
| C[C@@H](O)[C@H]1C(=O)N2C(C(=O)O)=C(/C(=C/[C@@H]3CCCN3)CN)C[C@H]12 | 0.004 | 100 (≈ 311 µM) | 52.1 | > 100 | > 100 | 0.78 (≈ 2.43 µM) | > 100 |  |  |  |  |  |  |
| CSC/C(=C\[C@@H]1CCCN1)C1=C(C(=O)O)N2C(=O)[C@H]([C@@H](C)O)[C@H]2C1 | < 0.006 | 0.78 (≈ 2.21 µM) | 54.3 | 25 (≈ 70.9 µM) | 3.13 (≈ 8.88 µM) | 0.1 (≈ 0.284 µM) | 100 (≈ 284 µM) |  |  |  |  |  |  |
